Assay results reported in publication PMC2784989 (Journal of medicinal chemistry, 2009).

Columns and labels:
recombinant Tdp1 [1] = target: T1, recombinant Tdp1 (Homo sapiens, UniProt Q9NUW8); experiment: Surface plasmon resonance direct binding; conditions: ten successive 2-fold dilutions from 100 μM
recombinant Tdp1 [2] = target: T1, recombinant Tdp1; experiment: Tdp1 gel-based assay; assay type: biochemical; conditions: single-stranded N14Y substrate
Tdp1 [3] = conditions: ref [28], [29]; cited from earlier work
Tdp1 [4] = conditions: NCI-DTP diversity set screen; ref [31]; cited from earlier work
HCT116 cells = experiment: Cellular studies alone and in combination with CPT; assay type: cell-based; conditions: data not shown
[5] = system: CPT-induced Top1-DNA cleavage complexes; experiment: Immunocomplex of enzyme; assay type: cell-based; conditions: data not shown
[6] = target: Tdp1 H493R (SCAN1 mutant) (Homo sapiens, UniProt Q9NUW8, H493R); experiment: SCAN1 mutant gel assay of Tdp1-DNA covalent complex formation; assay type: biochemical; conditions: 100 nM H493R; DNA sequencing and protein SDS-PAGE gels
human Top1 = target: T2, human Top1 (Homo sapiens, UniProt P11387); experiment: Top1 DNA relaxation counter-screen assay; assay type: biochemical; conditions: up to 100 μM
T2 sequence (P11387 1-765): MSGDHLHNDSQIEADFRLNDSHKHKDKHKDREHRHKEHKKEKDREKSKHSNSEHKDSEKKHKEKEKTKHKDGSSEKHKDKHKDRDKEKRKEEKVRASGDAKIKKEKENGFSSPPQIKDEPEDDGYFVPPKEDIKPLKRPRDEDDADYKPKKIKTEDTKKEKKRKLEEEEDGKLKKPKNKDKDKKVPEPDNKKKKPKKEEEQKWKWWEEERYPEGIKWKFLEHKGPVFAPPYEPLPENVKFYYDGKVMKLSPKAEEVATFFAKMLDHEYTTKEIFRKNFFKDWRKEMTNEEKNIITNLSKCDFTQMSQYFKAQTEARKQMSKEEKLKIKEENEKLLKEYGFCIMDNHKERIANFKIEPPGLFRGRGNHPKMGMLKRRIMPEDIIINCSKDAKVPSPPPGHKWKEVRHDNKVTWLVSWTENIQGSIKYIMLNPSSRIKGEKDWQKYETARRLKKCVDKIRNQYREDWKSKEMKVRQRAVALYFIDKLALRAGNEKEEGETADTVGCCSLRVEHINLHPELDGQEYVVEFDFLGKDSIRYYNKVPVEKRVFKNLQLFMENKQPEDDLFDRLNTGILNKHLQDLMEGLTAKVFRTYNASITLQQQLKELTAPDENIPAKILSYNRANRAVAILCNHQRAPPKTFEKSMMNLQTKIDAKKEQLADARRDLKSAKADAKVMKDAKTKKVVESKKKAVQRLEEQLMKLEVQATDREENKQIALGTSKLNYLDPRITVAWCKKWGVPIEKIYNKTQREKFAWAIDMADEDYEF

[7] = target: apurinic/apyrimidinic endonuclease (APE1) (Homo sapiens, UniProt P27695); experiment: APE1 counter-screen gel-based assay; assay type: biochemical; conditions: up to 100 μM
apurinic/apyrimidinic endonuclease (APE1), sequence (P27695 whole entry): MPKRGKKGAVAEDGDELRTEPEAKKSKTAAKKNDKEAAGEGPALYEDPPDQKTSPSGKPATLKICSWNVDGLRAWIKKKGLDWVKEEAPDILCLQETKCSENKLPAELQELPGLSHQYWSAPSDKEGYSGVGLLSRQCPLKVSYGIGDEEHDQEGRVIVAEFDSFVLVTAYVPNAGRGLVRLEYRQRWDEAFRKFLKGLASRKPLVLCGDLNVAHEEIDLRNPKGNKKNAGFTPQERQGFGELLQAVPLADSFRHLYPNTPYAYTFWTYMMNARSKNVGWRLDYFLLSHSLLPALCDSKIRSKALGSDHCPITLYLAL

T1 sequence (Q9NUW8 whole entry): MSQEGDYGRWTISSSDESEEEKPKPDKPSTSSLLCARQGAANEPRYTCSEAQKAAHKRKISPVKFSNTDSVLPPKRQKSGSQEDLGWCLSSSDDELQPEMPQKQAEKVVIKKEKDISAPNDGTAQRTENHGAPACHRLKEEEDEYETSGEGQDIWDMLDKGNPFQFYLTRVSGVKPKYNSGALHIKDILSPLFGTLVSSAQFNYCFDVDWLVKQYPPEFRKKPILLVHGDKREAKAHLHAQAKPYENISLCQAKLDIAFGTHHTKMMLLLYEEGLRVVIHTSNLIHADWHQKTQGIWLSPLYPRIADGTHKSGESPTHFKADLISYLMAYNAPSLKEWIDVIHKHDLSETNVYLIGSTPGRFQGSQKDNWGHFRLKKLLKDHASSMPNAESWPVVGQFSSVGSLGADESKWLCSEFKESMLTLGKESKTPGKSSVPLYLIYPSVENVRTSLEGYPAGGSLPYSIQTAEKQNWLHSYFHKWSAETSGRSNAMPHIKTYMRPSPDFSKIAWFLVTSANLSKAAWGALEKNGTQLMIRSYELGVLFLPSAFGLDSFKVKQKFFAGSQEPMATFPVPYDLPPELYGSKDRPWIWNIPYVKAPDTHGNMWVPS
Tdp1 H493R (SCAN1 mutant), sequence (Q9NUW8 whole entry H493R): as the sequence (Q9NUW8 whole entry) above, with H493R counted along it

For `C[C@]12CC[C@H]3[C@@H](CCC4=CC(=O)CC[C@@]43C)[C@@H]1CC[C@@H]2C(=O)COS(C)(=O)=O` [compound 7], the “binding to surface-bound Tdp1 (SPR)” value (recombinant Tdp1 [1]) was “No interaction” and the “Tdp1 inhibitory activity (in words)” value (recombinant Tdp1 [2]) was “minimally active”.
In the case of `[O]=[V]([O-])([O-])[O-]` [vanadate], the “concentration at which Tdp1 is inhibited” value (Tdp1 [3]) is given as “millimolar concentrations”.
In the case of `C[C@]12CC[C@H]3[C@@H](CCC4=CC(=O)CC[C@@]43C)[C@@H]1CC[C@@H]2C(=O)COS(=O)(=O)c1ccc(Br)cc1` [compound 1, 4-Pregnen-21-ol-3,20-dione-21-(4-bromobenzenesufonate)], the “inhibitory activity against Tdp1 in high-throughput screen” value (Tdp1 [4]) is given as “low micromolar concentrations”, the “effect in combination with camptothecin in HCT116 cells” value (HCT116 cells) is given as “only an additive effect” and the “activity by itself in HCT116 cells” value (HCT116 cells; up to 25 μM) is given as “limited activity”. For the same molecule, the “enhancement of CPT-induced Top1-DNA cleavage complexes” value [5] was “did not observe an enhancement”, the “formation of Tdp1-DNA covalent complexes by H493R mutant” value [6] was “concentration-dependent decrease” and the “binding to surface-bound Tdp1 (SPR)” value (recombinant Tdp1 [1]) was “direct binding”. The “inhibition of human Top1 (DNA relaxation)” value (human Top1) was “No evidence for inhibition” and the “inhibition of APE1” value [7] was “No evidence for inhibition”.
For `[O]=[W](=[O])([O-])[O-]` [tungstate], the “concentration at which Tdp1 is inhibited” value (Tdp1 [3]) is given as “millimolar concentrations”.
With `CC(=O)[C@H]1CC[C@H]2[C@@H]3CCC4=CC(=O)CC[C@]4(C)[C@H]3CC[C@]12C` [progesterone, reference compound] the “Tdp1 inhibitory activity (in words)” value (recombinant Tdp1 [2]) was “weakly active”.
